Test results published in patent US11066409B2, “Bicyclic nitrogen-containing heterocyclic derivatives and pharmaceutical composition comprising the same” (Shionogi & Co., Ltd., priority 2016, dated 2021).

Target: human P2X7 receptor (Homo sapiens (Human), UniProt Q99572, R270H)
Test: Evaluation of a human P2X7 receptor inhibitory activity (Yo-Pro uptake, BzATP stimulation, FLIPR TETRA)
Type: cell-based
Conditions: 1321N1 cells stably expressing human P2X7 receptor, Yo-Pro fluorescence
Procedure: Evaluation of a human P2X7 receptor inhibitory activity Stably expressing cell line (1321N1 cell transfected with the human P2X7 receptor gene (GenBank accession number NM_002562.5 including T606C and G952A SNP)) was used. The cells were seeded in a 384-well microtiter plate at a concentration of 8000 cells/well and cultured in the medium (10% fetal bovine serum, 25 mM HEPES, 1% penicillin and streptomycin in DMEM) for one day at 37° C. under 5% carbon dioxide atmosphere. After replacing with 20 μL of the HBSS buffer (20 mM HEPES, 55.6 mM D-glucose, 1× HBSS(−), pH7.4-7.5), 15 μL of 17.3 μM Yo-Pro solution in the HBSS buffer was added. The plate was placed in high-throughput cellular screening system FLIPR TETRA (Molecullar Devices, LLC.) and 15 μL of 130 μM BzATP solution in the HBSS buffer was added. Measurement of fluorescence intensity by FLIPR TETRA was started. After eight minutes, 15 μL of DMSO solutions containing different concentrations of the compound of the present invention as prepared by dilution with the HBSS buffer were dispensed to each well through the built-in automatic dispenser, and the measurement of fluorescence intensity was continued for 20 minutes. The maximum fluorescence intensity without the compound of the present invention is calculated as 0% inhibition and the maximum fluorescence intensity when the reference compound was added is calculated as 100% inhibition. Changing values of fluorescence intensity by the compound of the present invention were calculated by difference between maximum and minimum fluorescence intensity for 20 minutes. Inhibition ratios (%) were calculated from the following equation:
[formula] IC50 was calculated using logistic approximation.
As for IC50 value, value to below 10 nmol/L is represented as “A”, value from 10 nmol/L to below 100 nmol/L is represented as “B”, value from 100 nmol/L to below 500 nmol/L is represented as “C”, and value from 500 nmol/L to below 1 μmol/L is represented as “D”.

human P2X7 receptor, sequence (Q99572 whole entry R270H): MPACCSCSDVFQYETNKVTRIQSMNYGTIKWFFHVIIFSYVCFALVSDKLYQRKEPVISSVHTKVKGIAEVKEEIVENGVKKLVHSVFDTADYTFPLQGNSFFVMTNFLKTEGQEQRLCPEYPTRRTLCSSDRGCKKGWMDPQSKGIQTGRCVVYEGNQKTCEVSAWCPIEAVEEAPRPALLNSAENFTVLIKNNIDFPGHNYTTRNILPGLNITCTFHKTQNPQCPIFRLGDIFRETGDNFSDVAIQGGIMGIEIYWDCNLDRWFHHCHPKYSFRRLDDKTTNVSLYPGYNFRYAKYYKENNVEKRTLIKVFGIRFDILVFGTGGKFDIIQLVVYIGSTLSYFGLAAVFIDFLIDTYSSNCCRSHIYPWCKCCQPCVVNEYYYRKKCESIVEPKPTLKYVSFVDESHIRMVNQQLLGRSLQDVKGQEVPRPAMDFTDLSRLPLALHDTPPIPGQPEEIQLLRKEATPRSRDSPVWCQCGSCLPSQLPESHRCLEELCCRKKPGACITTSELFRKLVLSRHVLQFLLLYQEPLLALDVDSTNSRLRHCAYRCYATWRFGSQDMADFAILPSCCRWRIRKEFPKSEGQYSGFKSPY

| SMILES | IC50 (class symbols) [nM] | IC50 [nM] |
| --- | --- | --- |
| Cc1ccc(C#N)cc1NC1=NC(=O)N(CCO)C2=NCC(c3cc(F)c(F)c(F)c3)N12 (stereo not drawn) [Compound I-0189] | 10 to 100 |  |
| COc1ccc(C)c(Nc2nc(=O)cc3n2C(c2ccccc2)CC3)c1 (stereo not drawn) [Compound I-0016] | 10 to 100 |  |
| COCCOc1ccc(C)c(NC2=NC(=O)N(C)C3=NCC(Cc4ccccc4)N23)c1 (stereo not drawn) [Compound I-0169] | 10 to 100 |  |
| Cc1nc2cc(C)c(Nc3nc(=O)c(F)c4n3C(c3cc(F)cc(F)c3)CC4)cc2s1 (stereo not drawn) [Compound I-0101] | 10 to 100 |  |
| COc1ccc(NC2=NC(=O)N(C)C3=NCC(c4ccc(F)cc4)N23)c(C)n1 (stereo not drawn) [Compound I-0119] | 10 to 100 |  |
| COc1ccc(Nc2nc(=O)cc3n2C(c2ccc(F)c(F)c2)CC3)c(C)c1 (stereo not drawn) [Compound I-0041] | < 10 |  |
| COc1cc(C)c(NC2=NC(=O)N(C)C3=NCC(c4ccc(F)cc4)N23)cc1OC (stereo not drawn) [Compound I-0121] | 10 to 100 |  |
| CCOc1ccc(/N=c2\[nH]c(=O)c(F)c3n2C(c2ccc(F)cc2)CC3)c(C)n1 (stereo not drawn) [Compound I-0080] | < 10 |  |
| COc1cc(C)c(Nc2nc(=O)cc3n2C(c2ccccc2)CC3)cc1C (stereo not drawn) [Compound I-0020] | < 10 |  |
| Cc1nc2cc(C)c(Nc3nc(=O)cc4n3[C@H](c3ccccc3)CC4)cc2s1 [Compound I-0029] | < 10 |  |
| Cc1c(Cl)cccc1Nc1nc(=O)cc2n1C(c1cccc(Cl)c1)CC2 (stereo not drawn) [Compound I-0008] | < 10 |  |
| CCOc1cc(NC2=NC(=O)N(C)C3=NCC(c4cc(F)c(F)c(F)c4)N23)c(C)cc1F (stereo not drawn) [Compound I-0157] | 10 to 100 |  |
| COc1cc(NC2=NC(=O)N(C)C3=NCC(c4cc(F)cc(F)c4)N23)c(C)nc1OC (stereo not drawn) [Compound I-0133] | 10 to 100 |  |
| COc1ccc([C@@H](C)NC2=NC(=O)N(C)C3=NCC(c4cc(F)c(F)c(F)c4)N23)cc1 (stereo partly drawn) [Compound I-0207] | 100 to 500 |  |
| COc1ccc(C)c(/N=c2\[nH]c(=O)cc3n2C(c2cc(F)cc(F)c2)CC3)c1 (stereo not drawn) [Compound I-0061] | 10 to 100 |  |
| CCOc1ccc(/N=c2\[nH]c(=O)c(F)c3n2C(c2ccc(F)cc2F)CC3)c(C)n1 (stereo not drawn) [Compound I-0081] | 10 to 100 |  |
| COc1cc(Nc2nc(=O)cc3n2C(c2cc(F)cc(F)c2)CN3)c(C)cc1F (stereo not drawn) [Compound I-0134] | < 10 |  |
| Cc1ccccc1Nc1nc(=O)cc2n1C(c1ccccc1)CC2 (stereo not drawn) [Compound I-0015] | 10 to 100 |  |
| COc1nc(C)c(Nc2nc(=O)cc3n2C(c2cc(F)cc(F)c2)CC3)cc1F (stereo not drawn) [Compound I-0072] | 10 to 100 |  |

| SMILES | IC50 (class symbols) [nM] | IC50 [nM] |
| --- | --- | --- |
| Cc1cc2c(cc1Nc1nc(=O)cc3n1C(c1cc(F)cc(F)c1)CC3)COC2 (stereo not drawn) [Compound I-0066] | < 10 |  |
| CCc1c2n(c(Nc3ccc(OC)nc3C)nc1=O)C(c1cc(F)cc(F)c1)CC2 (stereo not drawn) [Compound I-0092] | 10 to 100 |  |
| Cc1cc(C#N)ccc1NC1=NC(=O)N(C)C2=NCC(c3cc(F)c(F)c(F)c3)N12 (stereo not drawn) [Compound I-0208] | 10 to 100 |  |
| Cc1c(Cl)cccc1Nc1nc(=O)cc2n1C(c1ccccc1)CO2 (stereo not drawn) [Compound I-0002] | < 10 |  |
| COc1ccc(/N=c2\[nH]c(=O)c(F)c3n2C(c2ccc(F)cc2)CC3)c(C)n1 (stereo not drawn) [Compound I-0069] |  | 10 |
| Cc1c(F)cc(C#N)cc1NC1=NC(=O)N(C)C2=NCC(c3cc(F)c(F)c(F)c3)N12 (stereo not drawn) [Compound I-0212] | 10 to 100 |  |
| COc1ccc(Nc2nc(=O)cc3n2C(c2ccc(F)c(Cl)c2)CC3)c(C)c1 (stereo not drawn) [Compound I-0037] | < 10 |  |
| COc1ccc(NC2=NC(=O)N(C)C3=NCC(c4cc(F)cc(F)c4)N23)c(C)c1F (stereo not drawn) [Compound I-0137] | 10 to 100 |  |
| Cc1[nH]c(=O)c(F)cc1Nc1nc(=O)cc2n1C(c1ccc(F)cc1F)CC2 (stereo not drawn) [Compound I-0088] | 500 to 1000 |  |
| COc1cc(Nc2nc(=O)cc3n2C(c2ccccc2)CC3)c(C)cn1 (stereo not drawn) [Compound I-0035] | 100 to 500 |  |
| COc1ccc(Nc2nc(=O)cc3n2C(c2cccc(F)c2)CC3)c(C)c1 (stereo not drawn) [Compound I-0049] | < 10 |  |
| COc1ccc(Nc2nc(=O)c(F)c3n2C(c2ccc(F)cc2)CN3C)c(C)n1 (stereo not drawn) [Compound I-0160] | 10 to 100 |  |
| COc1ccc(Nc2nc(=O)cc3n2C(c2ccccc2)CN3C)c(C)c1 (stereo not drawn) [Compound I-0110] | < 10 |  |
| Cc1ccc(OCC#N)cc1NC1=NC(=O)N(C)C2=NCC(c3cc(F)c(F)c(F)c3)N12 (stereo not drawn) [Compound I-0200] | 10 to 100 |  |
| Cc1cc(C)c(Nc2nc(=O)cc3n2C(c2ccccc2)CN3C)cc1C (stereo not drawn) [Compound I-0106] |  | 11 |
| COc1c2n(c(Nc3cccc(Cl)c3C)nc1=O)C(c1ccccc1)CCO2 (stereo not drawn) [Compound I-0009] |  | 22 |
| Cc1ccc(O[C@H]2C[C@H](CO)C2)cc1NC1=NC(=O)N(C)C2=NCC(c3cc(F)c(F)c(F)c3)N12 (stereo partly drawn) [Compound I-0186] | 10 to 100 |  |
| COc1ccc(NC2=NC(=O)N(C)C3=NCC(c4cc(F)cc(F)c4)N23)c(C)c1 (stereo not drawn) [Compound I-0122] | 10 to 100 |  |
| COc1nc(C)c(NC2=NC(=O)N(C)C3=NCC(c4cc(F)c(F)c(F)c4)N23)cc1CO (stereo not drawn) [Compound I-0182] | 10 to 100 |  |

| SMILES | IC50 (class symbols) [nM] | IC50 [nM] |
| --- | --- | --- |
| COc1ccc(Nc2nc(=O)n(C)c3ncn(Cc4ccccc4)c23)c(C)c1 [Compound I-0174] | 100 to 500 |  |
| Cc1ccc(OCCS(C)(=O)=O)cc1NC1=NC(=O)N(C)C2=NCC(c3cc(F)c(F)c(F)c3)N12 (stereo not drawn) [Compound I-0199] | 10 to 100 |  |
| COc1ccc(Nc2nc(=O)c(F)c3n2C(c2ccccc2)CC3)c(C)c1 (stereo not drawn) [Compound I-0046] | 10 to 100 |  |
| COc1cc(Nc2nc(=O)cc3n2C(c2ccc(F)cc2)CC3)c(C)cc1Cl (stereo not drawn) [Compound I-0033] | 10 to 100 |  |
| COc1ccc(Nc2nc(=O)cc3n2C(c2ccccc2)CC3)c(C)c1 (stereo not drawn) [Compound I-0014] | < 10 |  |
| COc1ccc(Nc2nc(=O)cc3n2C(c2cc(F)c(F)c(F)c2)CC3)c(C)n1 (stereo not drawn) [Compound I-0048] | 10 to 100 |  |
| CCN1C(=O)N=C(Nc2ccc(OC)cc2C)N2C1=NCC2c1ccc(F)cc1 (stereo not drawn) [Compound I-0140] | 10 to 100 |  |
| Cc1ccc(OC(F)(F)CO)cc1NC1=NC(=O)N(C)C2=NCC(c3cc(F)c(F)c(F)c3)N12 (stereo not drawn) [Compound I-0204] | 10 to 100 |  |
| CN1C(=O)N=C(Nc2cc(C3CC3)nn2C)N2C1=NCC2c1ccc(F)cc1 (stereo not drawn) [Compound I-0113] | 500 to 1000 |  |
| COc1ccc(C)c(Nc2nc(=O)n(C)c3ncn(Cc4ccccc4)c23)c1 [Compound I-0173] | 500 to 1000 |  |
| COc1ccc(Nc2nc(=O)c(F)c3n2C(c2cc(F)c(F)c(F)c2)CN3)c(C)n1 (stereo not drawn) [Compound I-0163] | 10 to 100 |  |
| COc1ccc(C)c(NC2=NC(=O)N(C)C3=NCC(c4ccc(F)cc4)N23)c1 (stereo not drawn) [Compound I-0129] | 10 to 100 |  |
| COc1ccc(C)c(Nc2nc(=O)c(F)c3n2C(c2cc(F)cc(F)c2)CC3)c1 (stereo not drawn) [Compound I-0098] | < 10 |  |
| CN1C(=O)N=C(NCc2ccccc2F)N2C1=NCC2c1cc(F)c(F)c(F)c1 (stereo not drawn) [Compound I-0196] | 10 to 100 |  |
| COc1ccc(NC2=NC(=O)N(C)C3=NCC(c4ccc(F)c(F)c4)N23)c(C)c1 (stereo not drawn) [Compound I-0125] | 10 to 100 |  |
| Cc1ccc(Oc2ccccn2)cc1NC1=NC(=O)N(C)C2=NCC(c3cc(F)c(F)c(F)c3)N12 (stereo not drawn) [Compound I-0193] | 10 to 100 |  |
| COc1ccc(Nc2nc(=O)cc3n2C(c2cc(F)cc(F)c2)CC3)c(C)n1 (stereo not drawn) [Compound I-0047] | 10 to 100 |  |
| COc1ccc(Nc2nc(=O)c(F)c3n2C(c2cc(F)cc(F)c2)CC3)c(C)c1 (stereo not drawn) [Compound I-0097] | < 10 |  |
| COc1ccc(Nc2nc(=O)cc3n2C(c2ccc(F)cc2)CC3)c(C)c1 (stereo not drawn) [Compound I-0023] | < 10 |  |
